Source: US11479570B2, “Pentafluorophosphate derivative, its uses and an appropriate manufacturing method” (FREIE UNIVERSITÄT BERLIN, priority 2017, dated 2022)
Entries after “also recorded” stand apart in the source; their conditions may differ. Like-named read-outs stand apart in the source and are kept apart here.

Assays:
[1] = molecular target: T1, protein tyrosine phosphatase PTP1B (Homo sapiens, UniProt P18031); conditions: data published (literature), cited from earlier work
T1 sequence (P18031 1-435): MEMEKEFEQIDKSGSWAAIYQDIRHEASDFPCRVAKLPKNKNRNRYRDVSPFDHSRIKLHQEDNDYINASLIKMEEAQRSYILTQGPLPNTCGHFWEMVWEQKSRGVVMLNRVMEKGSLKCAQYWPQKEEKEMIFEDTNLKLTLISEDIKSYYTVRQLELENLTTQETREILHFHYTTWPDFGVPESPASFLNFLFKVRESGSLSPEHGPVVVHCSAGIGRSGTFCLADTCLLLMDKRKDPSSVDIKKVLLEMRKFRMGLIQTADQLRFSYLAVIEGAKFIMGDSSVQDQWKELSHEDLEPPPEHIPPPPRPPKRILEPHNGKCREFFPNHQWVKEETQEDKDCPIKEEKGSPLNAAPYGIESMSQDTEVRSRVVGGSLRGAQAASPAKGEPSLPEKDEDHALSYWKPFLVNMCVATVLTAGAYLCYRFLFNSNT

[2] = Solubility; format: physicochemical; conditions: tetramethylammonium salt
Text: The obtained product 14-Na (cf. FIG. 5B) was stable and well soluble in the used biochemical buffer.

[3] = molecular target: T1, protein tyrosine phosphatase PTP1B; experiment: PTP1B enzyme assay (detection of chromogenic para-nitrophenolate); format: biochemical; conditions: for Ki: detection of the chromogenic para-nitrophenolate at 405 nm, read-out: inhibition constant KI (inhibitory effect on PTP1B in an enzyme assay)
Text: (§1) In order to enhance the solubility in aqueous systems and to exclude any interfering effects of the counter ion NMe4^+, compound 13 was transferred into its sodium salt 13-Na.
During the measurements of the inhibitory effect of 13-Na, inhibitors with known inhibition constants were used in parallel as positive controls in order to verify the reliability of the assay.

[4] = Stability in aqueous solution by 19F-NMR spectroscopy; format: physicochemical; conditions: pH range from 2 to 12 in aqueous solution, D2O, after several hours
Text: as §1

[5] = Lipophilicity from elution properties on RP-HPLC; format: physicochemical; conditions: in accordance with elution properties on RP-HPLC
Description: Formation of α,α-difluorobenzyl-penta-P-fluorophosphate 13 was confirmed by HPLC-MS analysis displaying very uncommon elution properties both on C8 and C18 reversed phase silica. While the phosphonic acid 12 eluted at 3.4 min on RP-18 material displaying a symmetric peak and a characteristic UV spectrum, compound 13 interacted strongly with the column material, resulting in elution after 9 min at the very end of the default gradient (5 to 95% ACN in water). Additionally, no absorbance of 13 at 210 nm, 254 nm and 290 nm could be observed. These properties hampered chromatographic purifications like reverse phase MPLC.

In the case of O=P(O)(O)Cc1ccccc1 [Benzyl phosphonic acid], the “Inhibitory effect on PTP1B in an enzyme assay (in words)” value ([1]; comparative example) is given as “No inhibition”.

For C[N+](C)(C)C.FC(F)(c1ccccc1)[P-](F)(F)(F)(F)F [compound 13, tetramethylammonium (difluoro-(phenyl)-methyl)-penta-P-fluorophosphate], the “solubility in acetonitrile versus water” value [2] was “more soluble in acetonitrile than in water”, the “inhibitory potential towards PTP1B (in words)” value [3] was “reversible inhibitor; also recorded: significant affinity” and the Ki [3] was 1800 µM. For the same compound, the “stability (degradation or hydrolysis)” value [4] was “no degradation or hydrolysis could be observed” and the “lipophilicity compared to phosphonate 12” value [5] was “significantly more lipophilic”.

C[N+](C)(C)C.FC(F)(c1ccc2ccccc2c1)[P-](F)(F)(F)(F)F [compound 14, tetramethylammonium (difluoro-(naphtha-2-yl)-methyl)-penta-P-fluorophosphate] showed a Ki [3] of 26 µM.

For Fluorobenzyl phosphonic acid, the Ki ([1]; comparative examples, read-out: Inhibitory effect on PTP1B in an enzyme assay, KI) is given as about 5000 µM.
